Data set [1] concerns MDS. Conditions: cited from earlier work.
The subject of data set [2] is human AML. In words: nonclinical xenograft models of human AML. In kind it is in vivo. The settings on record: mice. Background: A xenograft is tissue or cells of one species grown in another, often human tumour cells in immunodeficient mice.
Data set [3] is described as follows: Phase 1 trials of Hu5F9-G4 monotherapy. It counts as in vivo. Conditions: Phase 1 trial.
[4] abbreviates: pivotal randomized trial leading to azacitidine approval in MDS.

For the compound `Nc1ncn([C@@H]2O[C@H](CO)[C@@H](O)[C@H]2O)c(=O)n1` [azacitidine], the “known CR rate” value in data set [1] (azacitidine alone) was 17.85%. Besides, in data set [1] (setting [4]), the “CR+PR rate, point estimate” value is 15.7% and the “CR+PR rate, upper bound of the 1-sided 95% confidence interval” value was 23.5%.

As for “Hu5F9-G4: humanized IgG4 kappa monoclonal antibody targeting human CD47; heavy chain SEQ ID NO: 50, light chain SEQ ID NO: 51”, the “leukemic disease in the peripheral blood and bone marrow” value in data set [2] was “robust elimination of leukemic disease in the peripheral blood and bone marrow which results in long term remissions in a high percentage of mice treated”. Also, in data set [3], the “maximum tolerated dose (MTD)” value is recorded as “has not been reached” and the tolerability result is on record as “well tolerated”.
